In brackets after ≈: the same amount, converted by molar mass.
Assays:
Staphylococcus aureus = experiment: MIC by broth microdilution against Staphylococcus aureus; format: cell-based; settings: read-out: minimum inhibitory concentration (MIC)
[1] = test system: clinical isolates of Staphylococcus aureus; settings: pure molecule; literature value; cited from earlier work
[2] = test system: strain ATCC 33591 of MRSA; experiment: MIC by broth microdilution against MRSA; settings: MRSA ATCC 33591, 36° C. 48 h, Resazurin
Procedure: Pure DMSO samples are shown as zero control. […] Initial Concentration: 850 μg/mL.
The ethanol extract was dissolved in DMSO at a concentration of 10 mg/mL, from which serial dilutions were prepared (ratio 1:2) in 96-well sterile plates, geometry 12×8 wells. To each well were added 10 μL of a bacterial suspension containing approximately 7×10^6 cells/mL, prepared from the recent growth of strain ATCC 33591 of MRSA in nutrient agar. […] The experiments were performed in quadruplicate, in different periods.

With `CC(C)C(=O)c1c2c(c3oc(=O)cc(-c4ccc(O)cc4)c3c1O)CC(C)(C)C=C2` [amarilin] the MIC (Staphylococcus aureus) was at most 1 µg/mL.

For `C/C(=C\C(=O)OCCCCCCCCC(=O)O)C[C@@H]1OC[C@H](C[C@@H]2O[C@H]2[C@@H](C)[C@H](C)O)[C@@H](O)[C@H]1O` [mupirocin], the MIC value [1] is given as about 0.5 µg/mL (≈ 0.999 µM).

In the case of `Cl.O=C(O)c1cn(C2CC2)c2cc(N3CCNCC3)c(F)cc2c1=O` [hydrochloride ciprofloxacin], the “minimum inhibitory concentration (MIC)” value [2] is reported as 1 µg/mL.

— patent US20150335691A1, “PLANT EXTRACT OBTAINED FROM KIELMEYERA AUREOVINOSA WHICH HAS ANTIBIOTIC ACTIVITY, ISOLATED CHEMICAL COMPOUND, COMPOSITIONS COMPRISING SAME, USES THEREOF AND METHODS FOR PREVENTING AND TREATING BACTERIAL INFECTIONS” (EXTRACTA MOLÉCULAS NATURAIS S/A, priority 2011, published 2015)
